For data set [1], the target named is T1, VEGFR2 (Homo sapiens, UniProt P35968). As to the kind of experiment: GU40C4 cell surface binding assay (biotinylated peptoid, streptavidin quantum dots). Format: cell-based. Also on record: allow the library to be screened against the full-length receptor in as natural an environment as possible; host or cells: PAE/KDR (porcine aortic endothelial cells expressing human KDR). As to conditions: for binding to cells with or without native VEGFR2: HeLa, HEK-293, HFF, MCF-7, only MCF-7 expresses VEGFR2. As for the experimental part:
Different types of cells (PAE/KDR, PAE, Hela, HEK-293, MCF-7, HFF) were grown on each well of chamber slides (Nalge Nunc International) (10,000 cells/chamber) overnight. Washed, and fixed cells with 3.7% formaldehyde and blocked with Startingblock blocking buffer. […] After the final washing, cells were mounted by ProLong® Gold antifade reagent with DAPI (Invitrogen) and visualized under DAPI filter of the fluorescence microscope.
Specificity of the GU40C4-VEGFR2 interaction on the cell surface. […] The DAPI-stained nuclei are shown in blue. […] In addition, the red halo was not observed when the VEGFR2-expressing PAE/KDR cells were incubated with only the streptavidin-coated red quantum dots without addition of the biotinylated peptoid (FIG. 5C).
An important question is whether the peptoid is able to recognize VEGFR2 on the surface of cells when the receptor is expressed at native levels. To address this question, the inventors incubated biotinylated CU40C4 and streptavidin-coated red quantum dots with four different cell lines: HeLa, HEK-293, human foreskin fibroblast (HFF) and MCF-7. Of these, only MCF-7 expresses significant quantities of the VEGFR2. […] The inventors conclude from these experiments that the dimeric peptoid is highly specific for the VEGFR2 and can recognize the receptor even when it is expressed at native levels on the surface of a breast cancer cell.

The target in data set [2] is T1, VEGFR2. As to the kind of experiment: VEGF-induced VEGFR2 autophosphorylation in PAE/KDR cells, Western blot. Also on record: allow the library to be screened against the full-length receptor in as natural an environment as possible; host or cells: PAE/KDR (porcine aortic endothelial cells expressing human KDR). Format: cell-based. On the procedure:
Western blots. Experiments were conducted using PAE/KDR cells that were grown on 6-well plates. […] The blots were probed with Phospho-VEGF receptor 2 (Tyr1175) (19A10) rabbit monoclonal or Total VEGFR2 primary antibodies (Cell signaling) and HRP-conjugated secondary antibody (BioRad).
Functional characterization of the VEGFR2-binding peptoids. GU40C and GU40E were then tested for their ability to modulate VEGFR function. Of course, since the screen simply demanded binding of the peptoid to the receptor, it was not a given that this would be the case. […] Western blot analysis using phospho-VEGFR2-specific antibodies was then employed to monitor receptor activation.
To do so, the inventors examined the effect of the peptoid on VEGF-induced VEGFR2 autophosphorylation by Western blotting, as described earlier.

Data set [3] relates to A673 (human Ewing's sarcoma) tumors. As to conditions: mouse, in vivo.
Protocol: Cell Culture. The human Ewing's sarcoma cell line A673 (CRL-1598, ATCC, Manassas, Va.) was grown as a monolayer in Dulbeco's minimal essential medium (Invitrogen, Carlsbad, Calif.) supplemented with 10% heat-inactivated fetal calf serum (Atlanta Biologicals, Lawrenceville, Ga.). Cells were maintained at 37° C. in a mixture of 5% CO2 and 95% air. Cell viability was monitored by Trypan Blue (Invitrogen, Carlsbad, Calif.) exclusion after trypsinization. Cell fingerprinting was performed by Dr. Luc Girard at the McDermott Center at UT Southwestern to verify identity of cells and the cells were also tested and found to be negative for Mycoplasma prior to use.
Tumor study. Tumors were established in the right flank of 6-8 week old female athymic nu/nu mice (NCl, Frederick, Md.) by subcutaneous injection of 2.5 million cells in a volume of 50 μl PBS. On the same day, an Alzet subcutaneous pump (DURECT Corporation, Cupertino Calif.) was implanted per manufacturer's recommendations. […] Pumps were weighed empty and again when filled to ensure correct loading. Based on the mean pumping rate (0.2 μl/hr), these pumps were predicted to elute for 21 days. Implantation of the pump was performed by making a small incision on the back of the anesthetized animal and subsequently using a hemostat to create a subcutaneous pocket in which to place the pump. The incision was closed with a 5-0 prolene (Ethicon, Somerville, N.J.). Animal weights and tumor volumes (calipers) were recorded twice weekly. Volumes were calculated using the formula D*d^2*0.52 where D is the long diameter and d is the perpendicular short diameter.
Immunohistochemistry. Formalin-fixed tissues were embedded in paraffin, sectioned and stained with hematoxylin and eosin by the Molecular Histopathology Laboratory at UT Southwestern. H&E photographs were taken at a total magnification of 40× on a Nikon DXM 1200 digital camera (Melville, N.Y.). For immunohistochemical staining, slides were deparaffinized by heating at 60° C. for one hour followed by immersion in xylenes. Tissue was rehydrated by sequential immersion in ethanols. Endogenous peroxidase activity was blocked with 3% H2O2 in methanol. Antigen retrieval was performed using pH 6.0 citrate buffer (LabVision, Freemont, Calif.) for 15 minutes in a pressure cooker. […] The primary antibody was detected by incubating with a biotinylated donkey anti-rat IgG (Jackson ImmunoResearch, Westgrove, Pa.) followed by the ABC detection kit (Vector laboratories, Burlingame, Calif.). […] Microvessel density (MVD) was determined by manually counting the number of blood vessels in visible in the microscopic field of view (total magnification, 100×). […]
In data set [4] the test system is HUVEC. As to the kind of experiment: HUVEC proliferation assay. Type of data set: cell-based, human. As to conditions: 1.3 nM VEGF. As for the experimental part: HUVEC proliferation assay. HUVEC cells (ScienceCell) were harvested using enzyme free cell dissociation buffer and resuspended in ECM (5% FBS). Cells were plated (2000 cells/well) on white, clear bottom 96-well plates coated with gelatin. Cells were grown for 24 h at 37° C. […] The treatment was repeated with fresh media (0.2% FBS) and reagents after two days. After four days, viable cells were determined using CellTiter-Glo® Luminescent Cell Viability Assay kit (Promega), and the luminescent signal was read by the plate reader.

Data set [5] deals with HUVEC. Nature of the data set: HUVEC tube formation assay. Format: cell-based, human. As to conditions: 1 μM and 10 μM, 1.3 nM VEGF. On the procedure: HUVEC tube formation assay. Endothelial cell medium gel (ECM gel) was thawed overnight at 4° C. refrigerator and added 50 μl to each well of pre-chilled white, clear bottom 96-well plate. Incubated for 30 min to facilitate the gel formation. […] 150 μl of these treated cell suspension (20,000 cells) was added per well and incubated at 37° C. and visualized tube formation under the light microscope after 16 hours (10× magnification).

“Also recorded” adds a separate entry of the source. Positions of bridges follow the written chain, without caps; N, C: chain ends. Non-standard residues stand in square brackets, D forms with d. Residues, ends and D or L forms follow the SMILES beside them. Chains are numbered I, II in the order given. *: point of attachment. Fluorescein(5-Mal) = O=C1OC2(c3ccc(O)cc3Oc3cc(O)ccc32)c2ccc(N3C(=O)CC(*)C3=O)cc21; Gly(N-piperonyl) = O=C(O)CNCc1ccc2c(c1)OCO2; Nrpe = C[C@@H](NCC(=O)O)c1ccccc1; Nleu = CC(C)CNCC(=O)O; Nlys = NCCCCNCC(=O)O; Ahx = NCCCCCC(=O)O; βAla = NCCC(=O)O

These results are taken from US8334239B2, “High affinity VEGF-receptor antagonists” (The Board of Regents of the University of Texas System, priority 2007, dated 2012).

T1 sequence (P35968 20-1356): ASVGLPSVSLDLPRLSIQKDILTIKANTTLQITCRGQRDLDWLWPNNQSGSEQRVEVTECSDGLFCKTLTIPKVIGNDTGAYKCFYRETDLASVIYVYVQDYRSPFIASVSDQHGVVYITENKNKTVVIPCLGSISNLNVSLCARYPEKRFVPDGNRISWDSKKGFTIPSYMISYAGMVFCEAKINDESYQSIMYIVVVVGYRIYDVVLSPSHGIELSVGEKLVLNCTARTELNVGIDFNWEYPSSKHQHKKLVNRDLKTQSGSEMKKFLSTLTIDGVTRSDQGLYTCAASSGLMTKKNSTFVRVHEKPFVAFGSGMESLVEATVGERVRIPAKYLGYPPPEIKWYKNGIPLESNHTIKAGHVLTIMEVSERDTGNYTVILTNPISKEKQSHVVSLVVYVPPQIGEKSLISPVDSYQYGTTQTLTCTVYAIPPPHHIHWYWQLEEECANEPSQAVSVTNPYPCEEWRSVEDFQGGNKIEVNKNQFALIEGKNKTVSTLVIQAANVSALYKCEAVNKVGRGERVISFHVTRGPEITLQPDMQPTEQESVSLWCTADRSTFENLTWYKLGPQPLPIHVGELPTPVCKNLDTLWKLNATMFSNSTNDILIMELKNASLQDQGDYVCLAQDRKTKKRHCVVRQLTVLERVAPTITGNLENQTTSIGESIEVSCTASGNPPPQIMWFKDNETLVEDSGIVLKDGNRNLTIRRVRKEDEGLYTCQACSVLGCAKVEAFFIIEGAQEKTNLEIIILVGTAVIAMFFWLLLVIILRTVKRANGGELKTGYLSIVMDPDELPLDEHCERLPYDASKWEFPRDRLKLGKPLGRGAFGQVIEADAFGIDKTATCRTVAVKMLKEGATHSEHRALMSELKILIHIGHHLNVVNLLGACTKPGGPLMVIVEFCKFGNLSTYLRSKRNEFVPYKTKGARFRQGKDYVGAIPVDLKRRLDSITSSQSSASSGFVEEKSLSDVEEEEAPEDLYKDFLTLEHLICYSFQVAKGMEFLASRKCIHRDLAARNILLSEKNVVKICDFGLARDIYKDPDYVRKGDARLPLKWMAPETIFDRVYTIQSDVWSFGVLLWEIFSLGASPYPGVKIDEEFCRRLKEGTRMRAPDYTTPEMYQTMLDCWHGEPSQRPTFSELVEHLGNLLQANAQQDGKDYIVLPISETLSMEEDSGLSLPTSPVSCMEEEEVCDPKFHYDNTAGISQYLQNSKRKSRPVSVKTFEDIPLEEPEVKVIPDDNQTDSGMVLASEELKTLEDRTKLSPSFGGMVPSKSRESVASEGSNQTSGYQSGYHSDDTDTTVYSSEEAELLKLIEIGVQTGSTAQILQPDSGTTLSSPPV

With `CC(C)CN(CC(=O)N(CCCCN)CC(=O)N(CC(=O)N(CC(=O)N(CCCCN)CC(=O)N(CC(=O)N(CCCCN)CC(=O)N(CCCCN)CC(=O)NCCCCCC(=O)NCCC(=O)N[C@@H](CCCCNC(=O)CN(CCCCN)C(=O)CN(CCCCN)C(=O)CN(CC(C)C)C(=O)CN(CCCCN)C(=O)CN(Cc1ccc2c(c1)OCO2)C(=O)CN(C(=O)CN(CCCCN)C(=O)CN(CC(C)C)C(=O)CNCCCCN)[C@H](C)c1ccccc1)C(=O)N[C@@H](CSC1CC(=O)N(c2ccc3c(c2)C(=O)OC32c3ccc(O)cc3Oc3cc(O)ccc32)C1=O)C(N)=O)CC(C)C)Cc1ccc2c(c1)OCO2)[C@H](C)c1ccccc1)C(=O)CNCCCCN` (stereo partly shown) [GU40C4] (I: H-[Nlys][Nleu][Nlys][Nrpe][Gly(N-piperonyl)][Nlys][Nleu][Nlys][Nlys][Ahx][βAla]KC(Fluorescein(5-Mal))-NH2 / II: H-[Nlys][Nleu][Nlys][Nrpe][Gly(N-piperonyl)][Nlys][Nleu][Nlys][Nlys]; amide I:12-II:C), the “binding signal on PAE/KDR cells with competitor” value at VEGFR2 [1] (100-fold excess unlabeled GU40C4) was “disappeared completely”. In addition, at VEGFR2 [1], the “binding to cells with or without native VEGFR2” value is listed as “did not associate detectably with cells that lacked VEGFR2”. Besides, the “binding to cells with or without native VEGFR2” value on VEGFR2 [1] (listed as CU40C4) is given as “red halo was observed only when the peptoid was incubated with the MCF-7 cells”. For the same molecule, the “binding to PAE parental cells” value on VEGFR2 [1] (cells lacking the VEGFR2 expression vector) is “did not bind detectably”. Moreover, the “improvement of antagonism over the monomeric parent compound” value on VEGFR2 [2] is given as 100- to 500 fold. For the same molecule, in data set [3], the “adverse effects of treatment” value is recorded as “no adverse effects”, the “time after cessation of therapy until tumors grow at a rate similar to control” value was 3 to 4 days, the “tumor necrosis (H&E histology)” value was “induced significant tumor necrosis” and the tumor size result is listed as “approximately 200 mm^3”. Besides, the IC50 in the data set with HUVEC [4] (4 days, read-out: IC50 of VEGF-induced HUVEC proliferation) was around 1 µM. Also, in the data set on HUVEC [4] (1 μM), the “inhibition of HUVEC proliferation (in words)” value is listed as “halfway”. Moreover, the “inhibition of HUVEC proliferation (in words)” value with HUVEC [4] (10 μM) was “reduced to essentially basal levels; also recorded: almost to the basal level”. In the data set on HUVEC [5], the “effect on VEGF-induced HUVEC tube formation” value is reported as “Clear evidence of the inhibition of tube formation; also recorded: able to disrupt HUVEC tube formation; also recorded: disrupted HUVEC tube formation”.
